Reference: BindingDB's records for doi:10.1016/S0960-894X(01)80724-1 (1993)

Molecular target: Squalene synthase (Candida albicans)
Test: Inhibition of Candida albicans squalene synthase(SQS)

| Structure (SMILES) | IC50 [nM] |
| --- | --- |
| C=C(CC[C@]12O[C@H](C(=O)O)[C@@](O)(C(=O)O)[C@](C(=O)O)(O1)[C@H](O)[C@H]2OC(=O)OC)[C@@H](OC(C)=O)[C@H](C)Cc1ccccc1 [(1S,3S,4S,5R,6R,7R)-1-((4S,5R)-4-Acetoxy-5-methyl-3-methylene-6-phenyl-hexyl)-4,6-dihydroxy-7-methoxycarbonyloxy-2,8-dioxa-bicyclo[3.2.1]octane-3,4,5-tricarboxylic acid] | > 200 |
| C=C(CC[C@]12O[C@H](C(=O)O)[C@@](O)(C(=O)O)[C@](C(=O)O)(O1)[C@H](O)[C@H]2OC(=O)CCCCCCC)[C@@H](OC(C)=O)[C@H](C)Cc1ccccc1 [(1S,3S,4S,5R,6R,7R)-1-((4S,5R)-4-Acetoxy-5-methyl-3-methylene-6-phenyl-hexyl)-4,6-dihydroxy-7-octanoyloxy-2,8-dioxa-bicyclo[3.2.1]octane-3,4,5-tricarboxylic acid] | > 200 |
| C=C(CC[C@]12O[C@H](C(=O)O)[C@@](O)(C(=O)O)[C@](C(=O)O)(O1)[C@H](OC(=O)CCCCCCc1ccccc1)[C@H]2O)[C@@H](OC(C)=O)[C@H](C)Cc1ccccc1 [(1S,3S,4S,5R,6R,7R)-1-((4S,5R)-4-Acetoxy-5-methyl-3-methylene-6-phenyl-hexyl)-4,7-dihydroxy-6-(7-phenyl-heptanoyloxy)-2,8-dioxa-bicyclo[3.2.1]octane-3,4,5-tricarboxylic acid] | 7 |
| C=C(CC[C@]12O[C@H](C(=O)O)[C@@](O)(C(=O)O)[C@](C(=O)O)(O1)[C@H](OC(=O)/C=C/c1ccccc1)[C@H]2O)[C@@H](OC(C)=O)[C@H](C)Cc1ccccc1 [(1S,3S,4S,5R,6R,7R)-1-((4S,5R)-4-Acetoxy-5-methyl-3-methylene-6-phenyl-hexyl)-4,7-dihydroxy-6-[(E)-(3-phenyl-acryloyl)oxy]-2,8-dioxa-bicyclo[3.2.1]octane-3,4,5-tricarboxylic acid] | 10 |
| C=C(CC[C@]12O[C@H](C(=O)O)[C@@](O)(C(=O)O)[C@](C(=O)O)(O1)[C@H](OC(=O)OCCCCCCCCC)[C@H]2O)[C@@H](OC(C)=O)[C@H](C)Cc1ccccc1 [(1S,3S,4S,5R,6R,7R)-1-((4S,5R)-4-Acetoxy-5-methyl-3-methylene-6-phenyl-hexyl)-4,7-dihydroxy-6-nonyloxycarbonyloxy-2,8-dioxa-bicyclo[3.2.1]octane-3,4,5-tricarboxylic acid] | 2 |
| C=C(CC[C@]12O[C@H](C(=O)O)[C@@](O)(C(=O)O)[C@](C(=O)O)(O1)[C@H](OC(=O)CCCCCCC)[C@H]2OC(=O)CCCCCCC)[C@@H](OC(C)=O)[C@H](C)Cc1ccccc1 [(1S,3S,4S,5R,6R,7R)-1-((4S,5R)-4-Acetoxy-5-methyl-3-methylene-6-phenyl-hexyl)-4-hydroxy-6,7-bis-octanoyloxy-2,8-dioxa-bicyclo[3.2.1]octane-3,4,5-tricarboxylic acid] | > 200 |
| C=C(CC[C@]12O[C@H](C(=O)O)[C@@](O)(C(=O)O)[C@](C(=O)O)(O1)[C@H](OC(=O)OCCCC)[C@H]2O)[C@@H](OC(C)=O)[C@H](C)Cc1ccccc1 [(1S,3S,4S,5R,6R,7R)-1-((4S,5R)-4-Acetoxy-5-methyl-3-methylene-6-phenyl-hexyl)-6-butoxycarbonyloxy-4,7-dihydroxy-2,8-dioxa-bicyclo[3.2.1]octane-3,4,5-tricarboxylic acid] | 8 |
| C=C(CC[C@]12O[C@H](C(=O)O)[C@@](O)(C(=O)O)[C@](C(=O)O)(O1)[C@H](O)[C@H]2OC(C)=O)[C@@H](OC(C)=O)[C@H](C)Cc1ccccc1 [(1S,3S,4S,5R,6R,7R)-7-Acetoxy-1-((4S,5R)-4-acetoxy-5-methyl-3-methylene-6-phenyl-hexyl)-4,6-dihydroxy-2,8-dioxa-bicyclo[3.2.1]octane-3,4,5-tricarboxylic acid] | > 200 |
